Reference: patent US5932410A, “Assay for the detection of proteases” (Commonwealth Scientific and Industrial Research …, priority 1994, dated 1999)
Where a SMILES comes first, the peptide text is derived from it. The star is where a group is joined. Cbz = O=C(OCc1ccccc1)*

Legend:
Assay type in all cases: biochemical
Elastase = Elastase (Sus scrofa, UniProt P00772); experiment: Esterase assay, elastase; details: Z-AX-OMe substrate; for Esterase rate, Elastase: X = P1 residue, rates approximately ± 10%; for % activity, Elastase: normalised to alanine
Excerpt: (§1) Advantage was taken of this activity to develop an "esterase" assay which uses a pH indicator to visualise the hydrogen ion release caused by the action of proteases on peptide-ester substrates. A series of twenty compounds of the form, carbobenzoxy alanyl-X-methyl ester (Z-AX-OMe) were synthesised where "X" is one of the naturally occurring amino acids. These substrates were used in a 96 well microtitre plate assay to screen each mutant enzyme for activity and specificity. The reactions were followed visually or quantified using a standard ELISA plate reader. The esterase assay, using trypsin as a test enzyme and Z-Ala-Arg-OMe as substrate, was more sensitive as than traditional trypsin substrates (three times the rate obtained with benzoyl arginine ethyl aster and twenty times the rate of benzoyl arginine p-nitroanilide) (Whittaker et al., Analytical Biochemistry, 220, 238-243, 1994).
(§2) The present inventors produced a panel of substrates carbobenzoxy alanyl-X-methyl eater (Z-AX-OMe) where X is one of the naturally occurring amino acids. The reactivity of these substrates with a number of serine proteases is set out in Table 1 and FIG. 1.
(§3) Rates are A580 change/min./mg protease. Rates are also shown as a […]

Chymotrypsin = Chymotrypsin (Bos taurus, UniProt P00766); experiment: Esterase assay, chymotrypsin; details: Z-AX-OMe substrate; for Esterase rate, Chymotrypsin: X = P1 residue, rates approximately ± 10%; for % of maximum activity, Chymotrypsin: percentage of the maximum activity
Excerpt: as §1, §2, §3

Thrombin = Thrombin (Homo sapiens, UniProt P00734); experiment: Esterase assay, thrombin; details: Z-AX-OMe substrate; for Esterase rate, Thrombin: X = P1 residue, rates approximately ± 10%; for % of maximum activity, Thrombin: percentage of the maximum activity
Excerpt: as §1, §2, §3

α-Lytic protease = α-Lytic protease (Lysobacter enzymogenes, UniProt P00778); experiment: Esterase assay, α-lytic protease; details: Z-AX-OMe substrate; for Esterase rate, α-Lytic protease: X = P1 residue, rates approximately ± 10%; for % activity, α-Lytic protease: normalised to alanine
Excerpt: as §1, §2, §3

Proteinase K = Proteinase K (Parengyodontium album, UniProt P06873); experiment: Esterase assay, proteinase K; details: Z-AX-OMe substrate; for Esterase rate, Proteinase K: X = P1 residue, rates approximately ± 10%; for % of maximum activity, Proteinase K: percentage of the maximum activity
Excerpt: as §1, §2, §3

Subtilisin = experiment: Esterase assay, subtilisin; details: Z-AX-OMe substrate; for Esterase rate, Subtilisin: X = P1 residue, rates approximately ± 10%; for % of maximum activity, Subtilisin: percentage of the maximum activity
Excerpt: as §1, §2, §3

Trypsin = experiment: Esterase assay, trypsin; details: Z-AX-OMe substrate; for Esterase rate, Trypsin: X = P1 residue, rates approximately ± 10%; for % of maximum activity, Trypsin: percentage of the maximum activity
Excerpt: as §1, §2, §3

[1] = biological target: prostate specific antigen (PSA) (Homo sapiens, UniProt P07288); experiment: Esterase assay, PSA on peptide ester substrates; details: for Substrate preference of PSA: within the substrate series tested
Excerpt: Advantage was taken of this activity to develop an "esterase" assay which uses a pH indicator to visualise the hydrogen ion release caused by the action of proteases on peptide-ester substrates. A series of twenty compounds of the form, carbobenzoxy alanyl-X-methyl ester (Z-AX-OMe) were synthesised where "X" is one of the naturally occurring amino acids. These substrates were used in a 96 well microtitre plate assay to screen each mutant enzyme for activity and specificity. The reactions were followed visually or quantified using a standard ELISA plate reader.
In all eleven compounds were synthesised and purified and tested where X was the residue listed below.

[2] = substrates of the form Ac-Ala-x-TyrOMe, FIG. 2

Sequence of prostate specific antigen (PSA) (P07288 25-261): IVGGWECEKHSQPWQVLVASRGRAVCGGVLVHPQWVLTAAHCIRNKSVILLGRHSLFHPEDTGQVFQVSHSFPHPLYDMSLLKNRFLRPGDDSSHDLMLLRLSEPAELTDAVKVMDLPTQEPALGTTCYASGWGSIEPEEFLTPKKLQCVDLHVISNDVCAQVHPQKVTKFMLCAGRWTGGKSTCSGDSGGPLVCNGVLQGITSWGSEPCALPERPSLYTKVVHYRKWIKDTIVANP
Sequence of Proteinase K (P06873 106-384): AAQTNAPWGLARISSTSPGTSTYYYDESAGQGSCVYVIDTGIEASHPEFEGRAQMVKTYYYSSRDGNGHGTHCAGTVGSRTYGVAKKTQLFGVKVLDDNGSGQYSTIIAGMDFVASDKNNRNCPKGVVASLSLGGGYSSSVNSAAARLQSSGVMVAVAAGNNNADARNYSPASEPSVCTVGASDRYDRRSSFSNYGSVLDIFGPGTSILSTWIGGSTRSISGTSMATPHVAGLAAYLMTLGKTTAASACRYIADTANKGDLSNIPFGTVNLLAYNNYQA
Sequence of Elastase (P00772 27-266): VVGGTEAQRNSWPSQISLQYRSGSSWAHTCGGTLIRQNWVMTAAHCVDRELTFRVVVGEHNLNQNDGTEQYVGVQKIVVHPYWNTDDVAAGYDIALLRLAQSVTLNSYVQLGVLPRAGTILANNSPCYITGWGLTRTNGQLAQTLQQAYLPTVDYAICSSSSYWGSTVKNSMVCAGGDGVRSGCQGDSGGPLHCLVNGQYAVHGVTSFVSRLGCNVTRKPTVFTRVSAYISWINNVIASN
Sequence of α-Lytic protease (P00778 25-397 limits assumed): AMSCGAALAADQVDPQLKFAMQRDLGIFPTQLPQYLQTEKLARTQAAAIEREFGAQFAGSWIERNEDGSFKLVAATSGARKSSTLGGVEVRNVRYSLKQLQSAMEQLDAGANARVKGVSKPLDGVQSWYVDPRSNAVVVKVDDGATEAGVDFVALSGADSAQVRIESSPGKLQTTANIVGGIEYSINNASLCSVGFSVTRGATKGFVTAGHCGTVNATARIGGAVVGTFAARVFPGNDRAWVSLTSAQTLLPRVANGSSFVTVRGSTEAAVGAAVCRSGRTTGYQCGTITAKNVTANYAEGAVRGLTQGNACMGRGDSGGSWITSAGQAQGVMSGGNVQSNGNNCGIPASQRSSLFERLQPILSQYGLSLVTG

Compound: COC(=O)[C@H](CO)NC(=O)[C@H](C)NC(=O)OCc1ccccc1 [Ser] (Cbz-Ala-Ser-OMe)
- Esterase rate, Elastase (Elastase): 0.4 A580 change/min./mg protease
- % activity, Elastase (Elastase): 3.6%
- Esterase rate, Chymotrypsin (Chymotrypsin): trace
- Esterase rate, Thrombin (Thrombin): 0 A580 change/min./mg protease
- % of maximum activity, Thrombin (Thrombin): 0%
- Esterase rate, α-Lytic protease (α-Lytic protease): 0.7 A580 change/min./mg protease
- % activity, α-Lytic protease (α-Lytic protease): 11.3%
- Esterase rate, Proteinase K (Proteinase K): 348 A580 change/min./mg protease
- % of maximum activity, Proteinase K (Proteinase K): 44.9%
- Esterase rate, Subtilisin (Subtilisin): 366 A580 change/min./mg protease
- % of maximum activity, Subtilisin (Subtilisin): 17.0%
- Esterase rate, Trypsin (Trypsin): 0 A580 change/min./mg protease
- % of maximum activity, Trypsin (Trypsin): 0%

Compound: COC(=O)[C@H](Cc1ccc(O)cc1)NC(=O)[C@@H](NC(=O)[C@H](C)NC(C)=O)C(C)C [Substrate 218, Ac-AlaValTyr-OMe] (Ac-Ala-Val-Tyr-OMe)
- Rate relative to Z-AlaTyr OMe (the screening substrate) ([1]; PSA, from the graph (FIG. 2)): 15.5
- Substrate preference of PSA [1]: best

Compound: COC(=O)[C@@H](NC(=O)[C@H](C)NC(=O)OCc1ccccc1)[C@@H](C)O [Thr] (Cbz-Ala-Thr-OMe)
- Esterase rate, Elastase (Elastase): 3.1 A580 change/min./mg protease
- % activity, Elastase (Elastase): 19.7%
- Esterase rate, Chymotrypsin (Chymotrypsin): trace
- Esterase rate, Thrombin (Thrombin): 0 A580 change/min./mg protease
- % of maximum activity, Thrombin (Thrombin): 0%
- Esterase rate, α-Lytic protease (α-Lytic protease): 4.2 A580 change/min./mg protease
- % activity, α-Lytic protease (α-Lytic protease): 67.7%
- Esterase rate, Proteinase K (Proteinase K): 90 A580 change/min./mg protease
- % of maximum activity, Proteinase K (Proteinase K): 11.6%
- Esterase rate, Subtilisin (Subtilisin): 123 A580 change/min./mg protease
- % of maximum activity, Subtilisin (Subtilisin): 5.7%
- Esterase rate, Trypsin (Trypsin): 0 A580 change/min./mg protease
- % of maximum activity, Trypsin (Trypsin): 0%

Compound: COC(=O)[C@H](Cc1c[nH]c2ccccc12)NC(=O)[C@H](C)NC(=O)OCc1ccccc1 [Trp] (Cbz-Ala-Trp-OMe)
- Esterase rate, Elastase (Elastase): 0 A580 change/min./mg protease
- % activity, Elastase (Elastase): 0%
- Esterase rate, Chymotrypsin (Chymotrypsin): 27.2 A580 change/min./mg protease
- % of maximum activity, Chymotrypsin (Chymotrypsin): 49.3%
- Esterase rate, Thrombin (Thrombin): 0 A580 change/min./mg protease
- % of maximum activity, Thrombin (Thrombin): 0%
- Esterase rate, α-Lytic protease (α-Lytic protease): 0 A580 change/min./mg protease
- % activity, α-Lytic protease (α-Lytic protease): 0%
- Esterase rate, Proteinase K (Proteinase K): 353 A580 change/min./mg protease
- % of maximum activity, Proteinase K (Proteinase K): 45.5%
- Esterase rate, Subtilisin (Subtilisin): 216 A580 change/min./mg protease
- % of maximum activity, Subtilisin (Subtilisin): 10.1%
- Esterase rate, Trypsin (Trypsin): trace

Compound: COC(=O)[C@H](Cc1ccc(O)cc1)NC(=O)[C@H](C)NC(=O)OCc1ccccc1 [Tyr, Z-Ala-Tyr-OMe] (Cbz-Ala-Tyr-OMe)
- Esterase rate, Elastase (Elastase): 0 A580 change/min./mg protease
- % activity, Elastase (Elastase): 0%
- Esterase rate, Chymotrypsin (Chymotrypsin): 55.2 A580 change/min./mg protease
- % of maximum activity, Chymotrypsin (Chymotrypsin): 100%
- Esterase rate, Thrombin (Thrombin): 0 A580 change/min./mg protease
- % of maximum activity, Thrombin (Thrombin): 0%
- Esterase rate, α-Lytic protease (α-Lytic protease): 0 A580 change/min./mg protease
- % activity, α-Lytic protease (α-Lytic protease): 0%
- Esterase rate, Proteinase K (Proteinase K): 80 A580 change/min./mg protease
- % of maximum activity, Proteinase K (Proteinase K): 10.3%
- Esterase rate, Subtilisin (Subtilisin): 345 A580 change/min./mg protease
- % of maximum activity, Subtilisin (Subtilisin): 16.1%
- Esterase rate, Trypsin (Trypsin): 10.8 A580 change/min./mg protease
- % of maximum activity, Trypsin (Trypsin): 3.0%
- Substrate preference of PSA [1]: preferred substrate

Compound: COC(=O)[C@@H](NC(=O)[C@H](C)NC(=O)OCc1ccccc1)C(C)C [Val] (Cbz-Ala-Val-OMe)
- Esterase rate, Elastase (Elastase): 2.1 A580 change/min./mg protease
- % activity, Elastase (Elastase): 13.4%
- Esterase rate, Chymotrypsin (Chymotrypsin): 0 A580 change/min./mg protease
- % of maximum activity, Chymotrypsin (Chymotrypsin): 0%
- Esterase rate, Thrombin (Thrombin): 0 A580 change/min./mg protease
- % of maximum activity, Thrombin (Thrombin): 0%
- Esterase rate, α-Lytic protease (α-Lytic protease): 1.3 A580 change/min./mg protease
- % activity, α-Lytic protease (α-Lytic protease): 21.0%
- Esterase rate, Proteinase K (Proteinase K): 97 A580 change/min./mg protease
- % of maximum activity, Proteinase K (Proteinase K): 12.5%
- Esterase rate, Subtilisin (Subtilisin): 35 A580 change/min./mg protease
- % of maximum activity, Subtilisin (Subtilisin): 1.6%
- Esterase rate, Trypsin (Trypsin): 0 A580 change/min./mg protease
- % of maximum activity, Trypsin (Trypsin): 0%

Compound: PSA: prostate specific antigen, a protease; the enzyme tested on the substrates
- Rate of PSA [1, 2]: 0.0263 OD580 change/min/μg
- Rate of PSA, equivalent [1, 2]: 9.99 μmoles substrate/min/mg
